Laboratory results as given in patent publication US9234006B2, “Compounds” (Novacta Biosystems Limited, priority 2011, dated 2016).
Where a name gives a salt, the structure may show the parent alone. Read-outs that look alike come from different tables or passages of the source. Marks after values point to notes of the source that are not given here. Where a SMILES comes first, the peptide text is derived from it. Bridges are numbered along the chain shown (N, C = ends). [ ]: non-standard residue; d: D form. The star is where a group is joined. ξ: configuration not given here. Thr(3ξ) = CC(O)[C@H](N)C(=O)O; Dab = NCC[C@H](N)C(=O)O; X1 = CCCCCCC(O)C(=O)*; GABA = NCCCC(=O)O

How the values were obtained:
[1] = system: A. baumannii ATCCBAA-747; test: MIC susceptibility testing, broth microdilution in CaMHB; type: cell-based, Acinetobacter baumannii
Procedure, shortened: (§1)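 Cation-adjusted Mueller-Hinton broth microdilution, run in duplicate. Inoculum from overnight 37 °C cultures subcultured to OD600 0.2-0.3 […], then diluted 100-fold. Different CaMHB batches from the earlier data set.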

[2] = system: A. baumannii NCTC13423; test: as above; type: cell-based, Acinetobacter baumannii
Procedure, shortened: as §1

[3] = system: A. baumannii clinical isolates and resistant strains; type: cell-based; conditions: clinical isolates and resistant strains
Description: (§2) The in vitro antibacterial activities of the compounds of examples 2 and 6 were evaluated against a panel of […] Gram-negative bacterial isolates alongside Colistin. The panel consisted of 100 clinical isolates of each of A. baumannii, E. coli, K. pneumoniae and P. aeruginosa. The panel represented the current epidemiology in Europe and the USA and included a number of relevant strains with defined resistant phenotypes to current clinically-used antibacterial agents. These resistant strains included 20 A. baumannii, 22 E. coli, 25 K. pneumoniae and 20 P. aeruginosa strains.
(§3) All compounds were tested up to a maximum concentration of 64 μg/mL with the exception of colistin, which was evaluated up to a maximum concentration of 16 μg/mL.

[4] = system: E. coli clinical isolates and resistant strains; type: cell-based; conditions: clinical isolates and resistant strains
Description: as §2, §3

[5] = system: K. pneumoniae clinical isolates and resistant strains; type: cell-based; conditions: clinical isolates and resistant strains
Description: as §2, §3

[6] = system: P. aeruginosa clinical isolates and resistant strains; type: cell-based; conditions: clinical isolates and resistant strains
Description: as §2, §3

[7] = set-up: species or system rats; conditions: rat, in vivo, 8 mg/kg
Description: Colistin and the example compounds were prepared in saline. Compounds were introduced via the jugular canula twice a day 7 hours apart for seven days. […] The dose regimen is set out in Table 8 below.

[8] = system: HK-2 cell line; conditions: 24 h incubation, resazurin reduction; Table 7
Description: The renal cell toxicity of the compounds was assessed in an in vitro assay using the HK-2 cell line, an immortalized proximal tubule cell line derived from a normal human kidney. The endpoint to describe the toxicity of the compounds was the reduction of resazurin correlating with the metabolic activity of the cells.
Cells were cultured in 150 cm^2 flasks in 25 mL supplemented KSF (with 5 ng/mL EGF and 50 μg/mL BPE). Cells were maintained at 70% confluence with a maximum of 25 passages. Day 1: Media was removed and cells were washed with 10 ml DPBS. […] After 1 to 2 minutes incubation, 14 ml media was added to the flask to inactivate the trypsin. The cell suspension was transferred to a centrifuge tube and the cells pelleted at 1000 rpm for 6 minutes. The cell pellet was then resuspended in fresh media supplemented with EGF and BPE. […] 7500 cells were dispensed in each well in a volume of 160 μl and incubated at 37° C. for 24 h.
Day 2: Test compounds were prepared directly into the media. […] The microtiter plates were removed from the incubator and the media replaced with 100 μl of the dilutions of the compound solution. Every set of concentration was done in triplicate, and positive and negative controls were added to each plate. The plates were then incubated for 24 h at 37° C. with 5% CO2 in a humidified atmosphere.
Day 3: The reagent containing the resazurin (CellTiter-Blue, Promega) was diluted in PBS (1:4) and added at 20% (v/v) to each well. The plates were then incubated at 37° C. for 2 h before the fluorescent reduction product was detected.
Media only background values were subtracted before the data was analysed using GraphPad Prism. Compound concentration values were plotted as log values to enable a dose-response curve to be fitted and IC50 values determined (Table 7).
The renal cell toxicity of the additional example compounds was assessed in an in vitro assay using the HK-2 cell as described in the example above.

[9] = system: Escherichia coli isolate ATCC25922; type: in vivo; conditions: thigh
Description: Groups of 5 female specific-pathogen-free CD-1 mice weighing 22±2 g were used. The animals were made neutropenic by intraperitoneal administration of cyclophosphamide on days −4 (150 mg/kg) and −1 (100 mg/kg). […] Examples 2, 4, 5, 6, 7, 8, 10, 11 and polymyxin B were prepared in Normal Saline at 2 mg/mL and the solution was adjusted to pH 6-7 by addition of 0.1M H2SO4 or 4.2% NaHCO3 as required. Twenty-four hours after infection, the mice were euthanized humanely. The muscle of the right thigh of each animal was harvested, homogenized, serially diluted and plated on Brain Heart Infusion agar+0.5% charcoal (w/v) for CFU determination. Decrease of the total CFU of right thigh as compared to control counts at 24 hrs post-infection was determined for each dose group. […] The in vivo efficacy of the compound of Example 14 was evaluated in a mouse thigh infection model of E. coli. using the methods described in the examples above. The result is summarized in Table 5A in comparison with Polymyxin B.

[10] = Table 4A, different batches of cation-adjusted Muller-Hinton broth

Compound | MIC ([1]; Table 4) [micrograms/mL] | MIC [1, 10] [micrograms/mL] | MIC ([2]; Table 4) [micrograms/mL] | MIC [2, 10] [micrograms/mL] | MIC50 Clinical isolates [3] [µg/mL] | MIC50 Resistant strains [3] [µg/mL] | MIC90 Clinical isolates [3] [µg/mL] | MIC90 Resistant strains [3] [µg/mL] | MIC Range Resistant strains [3] [µg/mL] | MIC50 Clinical isolates [4] [µg/mL] | MIC50 Resistant strains [4] [µg/mL] | MIC90 Clinical isolates [4] [µg/mL] | MIC90 Resistant strains [4] [µg/mL] | MIC Range Resistant strains [4] [µg/mL] | MIC50 Clinical isolates [5] [µg/mL] | MIC50 Resistant strains [5] [µg/mL] | MIC90 Clinical isolates [5] [µg/mL] | MIC90 Resistant strains [5] [µg/mL] | MIC50 Clinical isolates [6] [µg/mL] | MIC50 Resistant strains [6] [µg/mL] | other results
CCCCCCC(O)C(=O)N[C@H](C(=O)N[C@@H](CCN)C(=O)N[C@H]1CCNC(=O)[C@H](C(C)O)NC(=O)[C@H](CCN)NC(=O)[C@H](CCN)NC(=O)[C@H](CC(C)C)NC(=O)[C@@H](Cc2ccccc2)NC(=O)[C@H](CCN)NC1=O)C(C)O (stereo partly drawn) [Example 2, [2(R,S)-2-Hydroxyoctanoyl] Polymyxin B Nonapeptide, Sulphate Salt] (X1-[Thr(3ξ)][Dab][Dab][Dab][dF]L[Dab][Dab][Thr(3ξ)]; lactam 3-C) | 2 | 2 | 1 | 1 | 4 | 4 | 8 | 4 | 2 to 4 | 2 | 1 | 4 | 2 | 0.5 to 4 | 8 | 8 | 32 | 32 | 2 | 2 | MIC Range Clinical isolates [3]: 1 to 32 µg/mL; MIC Range Clinical isolates [4]: 1 to 16 µg/mL; MIC90 Clinical isolates [6]: 4 µg/mL; MIC90 Resistant strains [6]: 4 µg/mL; MIC Range Clinical isolates [6]: 1 to 8 µg/mL; MIC Range Resistant strains [6]: 1 to 4 µg/mL; levels of the renal biomarker NAG in urine compared to Colistin at the same dose regimen [7]: significantly reduced levels; levels of the renal biomarker albumin in urine compared to Colistin at the same dose regimen [7]: significantly reduced levels; levels of the renal biomarker cystatin C in urine compared to Colistin at the same dose regimen [7]: significantly reduced levels
CC(C)C[C@@H]1NC(=O)[C@@H](Cc2ccccc2)NC(=O)[C@H](CCN)NC(=O)[C@@H](NC(=O)[C@H](CCN)NC(=O)[C@@H](NC(=O)CCCN)[C@@H](C)O)CCNC(=O)[C@H]([C@@H](C)O)NC(=O)[C@H](CCN)NC(=O)[C@H](CCN)NC1=O [Example 6, 4-Aminobutanoyl Polymyxin B Nonapeptide, Sulphate Salt] (H-[GABA]T[Dab][Dab][Dab][dF]L[Dab][Dab]T; lactam 4-C) |  |  |  |  | 2 | 2 | 8 | 4 | 1 to 4 | 2 | 0.5 | 8 | 4 | 0.06 to 4 | >64 | >64 | >64 | >64 | 0.25 | 0.5 | MIC90 Clinical isolates [6]: 16 µg/mL; MIC90 Resistant strains [6]: 8 µg/mL; MIC Range Clinical isolates [6]: 0.06 to 64 µg/mL; MIC Range Resistant strains [6]: 0.12 to 16 µg/mL; IC50 HK-2 cells [8]: 154 µg/mL; levels of the renal biomarker NAG in urine compared to Colistin at the same dose regimen [7]: significantly reduced levels; levels of the renal biomarker albumin in urine compared to Colistin at the same dose regimen [7]: significantly reduced levels; levels of the renal biomarker cystatin C in urine compared to Colistin at the same dose regimen [7]: significantly reduced levels
Polymyxin B [reference compound] | 0.25 | 0.125 | 0.25 | <0.06 |  |  |  |  |  |  |  |  |  |  |  |  |  |  |  |  | Mean log10 CFU reduction vs. control ([9]; neutropenic CD-1 mice, total daily dosage 3 mg/kg (1.5 mg/kg BID) subcutaneous, 24 h post-infection, Table 5): 2.5 ^a log10 CFU; Mean log10 CFU reduction vs. control ([9]; neutropenic CD-1 mice, total daily dosage 10 mg/kg (5 mg/kg BID) subcutaneous, 24 h post-infection, Table 5): 4.2 ^a log10 CFU; Mean log10 CFU reduction vs. control ([9]; neutropenic mice, total daily dosage 3 mg/kg, additional study, Table 5A): 3.75 log10 CFU; Mean log10 CFU reduction vs. control ([9]; neutropenic mice, total daily dosage 10 mg/kg, additional study, Table 5A): 4.87 log10 CFU; IC50 HK-2 cells [8]: 11^b μg/mL
